From patent US20200323811A1, “INTRANASAL PHARMACEUTICAL COMPOSITION COMPRISING ANTICANCER DRUGCONTAINING NANOPARTICLES FOR TREATING BRAIN DISEASES” (INDUSTRY-UNIVERSITY COOPERATION FOUNDATION HANYANG …, priority 2016, published 2020)

How the values were obtained:
C-6 glioma cells = experiment: Viability/apoptosis (calcein-AM / EthD-1) analysis; format: cell-based, rat; conditions: 24 hours
Experimental: (§1) The rat (C6) and human (U87MG) glioblastoma cells used in this experiment were obtained from ATCC (Rockville, Md.), and cultured in Dulbecco's Modified Eagle's Medium (DMEM) containing 10% fetal bovine serum, penicillin (100 IU/mL) and streptomycin (100 μg/mL) at 37° C. in a 5% CO2 incubator. For all in vitro experiments, the cells were seeded in a 12-well plate at a density of 1×10^5 cells/well.
An image was captured using a fluorescence microscope (Leica, Wetzlar, Germany). A percentage of live or dead cells was calculated using ImageJ software, developed by the National Institute of Health (NIH).

U87MG glioma cells = experiment: Cell cycle (DNA content, PI) analysis; format: cell-based, human; conditions: 24 hours
Experimental: as §1

[1] = In vivo toxicity by body weight of inoculated animals; parameters: species or system rat; conditions: glioblastoma rats, 2 mg/kg intranasal
Experimental: Further, the in vivo toxicity of NPs was evaluated by measuring a body weight of the inoculated animal. The change in body weight is reliable indicator for assessing the in vivo toxicity of a delivered drug. […] However, an insignificant change in body weight was shown in all animals due to cancer mass over time after tumor implantation (FIG. 8).

U87MG-Fluc glioblastoma = experiment: Human glioblastoma (U87MG-Fluc) model, intranasal inoculation; format: in vivo, immunodeficient nude mice; conditions: 1 mg/kg intranasal, three inoculations
Experimental: Specifically, intracranial tumor models were established from 6-week-old male Sprague-Dawley rats. The anesthetized rats were placed in a stereotaxic frame, and the skull was gently exposed to spot the bregma. The monitoring points for the bregma were as follows: anteroposterior, 0 mm; lateral, 2.0 mm; and ventral, 4.0 mm. A fine burr hole (0.7 mm) was created in the skull without disrupting the dura using a microsurgical drill. […] Reno, Nev., USA) at a speed of 0.9 μl/min. To generate a human glioblastoma model, 1×10^5/[…] of U87MG-Fluc cells were inoculated into immunodeficient nude mice by the same method. After the operation, the skin was sutured. […] In vivo and ex vivo bioluminescence imaging was performed. For in vivo bioluminescence imaging, 150 mg/kg of D-luciferin (Caliper, Hopkinton, Mass.) was intraperitoneally injected into anesthetized animals. The live images were taken 15 minutes after the injection of D-luciferin by the IVIS Lumina caliper series (Life Technologies, Carlsbad, Calif.). To evaluate ex vivo bioluminescence, the excised brain tissue was incubated with a D-luciferin substrate for 15 minutes, followed by imaging as described above. […] The cancer volume was calculated using ImageJ software as described above.

C6-Luc glioblastoma = experiment: Intracranial C6-Luc orthotopic glioblastoma model, intranasal inoculation; format: in vivo, Sprague-Dawley rats
Experimental: The therapeutic efficacy of intranasally-delivered PTX-loaded NPs was evaluated in an intracranial C6-Luc orthotropic model. […] Therefore, as a PTX solvent, DMSO was used. In addition, to minimize DMSO-associated cytotoxicity, the PTX-loaded NPs were dissolved in PBS. The intranasal inoculation started at day 4 after tumor administration and was performed daily for a total of three times.
Specifically, intracranial tumor models were established from 6-week-old male Sprague-Dawley rats. The anesthetized rats were placed in a stereotaxic frame, and the skull was gently exposed to spot the bregma. The monitoring points for the bregma were as follows: anteroposterior, 0 mm; lateral, 2.0 mm; and ventral, 4.0 mm. A fine burr hole (0.7 mm) was created in the skull without disrupting the dura using a microsurgical drill. A total of 2×10^5/10 μl C6-Fluc cells were injected using a 26-gauge Hamilton microsyringe (80330; Reno, Nev., USA) at a speed of 0.9 μl/min. To generate a human glioblastoma model, 1×10^5/[…] of U87MG-Fluc cells were inoculated into immunodeficient nude mice by the same method. After the operation, the skin was sutured.
In vivo and ex vivo bioluminescence imaging was performed. For in vivo bioluminescence imaging, 150 mg/kg of D-luciferin (Caliper, Hopkinton, Mass.) was intraperitoneally injected into anesthetized animals. The live images were taken 15 minutes after the injection of D-luciferin by the IVIS Lumina caliper series (Life Technologies, Carlsbad, Calif.). […]
For Nissl staining, paraffin-embedded brain sections were deparaffinized, rehydrated, and then subjected to treatment with a 0.1% crystal violet solution according to a standard protocol. […] The cancer volume was calculated using ImageJ software as described above. […]
To investigate apoptosis in the de-paraffinized and hydrated brain sections, the TUNEL assay was performed using an in situ apoptosis detection kit (Millipore) according to the manufacturer's instruction. […] Fluorescent signals of the cells were measured by taking images using a fluorescence microscope (Leica, Wetzlar, Germany). […]

rat glioma cells = experiment: Annexin V / 7-AAD apoptosis flow cytometry; format: cell-based; conditions: 24 hours
Experimental: as §1

C6-glioma cells = experiment: TUNEL assay and Hoechst staining in cultured cells; format: cell-based, rat
Experimental: as §1

C6 glioblastoma cells = experiment: Cell cycle (DNA content, PI) analysis; format: cell-based, rat; conditions: 10 μM PTX equivalent, 24 hours
Experimental: as §1
And then, the cells were collected, and fixed with 70% ethanol at 4° C. for 2 hours. After incubation, the cells were washed, and additionally incubated with a DNase-free RNase (1 mg/mL) and 0.02 mg/mL of propidium iodide (PI). A cell cycle profile was studied using a flow cytometer (BD FACS Calibur™), and analyzed using FlowJo software.

CC(=O)O[C@H]1C(=O)[C@@]2(C)[C@H]([C@H](OC(=O)c3ccccc3)[C@]3(O)C[C@H](OC(=O)[C@H](O)[C@@H](NC(=O)c4ccccc4)c4ccccc4)C(C)=C1C3(C)C)[C@]1(OC(C)=O)CO[C@@H]1C[C@@H]2O [PTX, Paclitaxel]
dead cells (C-6 glioma cells; 0.01 μM): 8.3% | dead cells (C-6 glioma cells; 0.1 μM): 23.1% | dead cells (C-6 glioma cells; 1 μM): 31.8% | dead cells (C-6 glioma cells; 10 μM): 49.2% | dead cells (C-6 glioma cells; 50 μM): 63.8% | arrested population at the G2-M phase compared with C6 cells (U87MG glioma cells): slightly higher arrested population at the G2-M phase | change in body weight [1]: significant effect on body weight loss | tumor growth / therapeutic effect compared with saline (BLI) (U87MG-Fluc glioblastoma): did not show any therapeutic effect | tumor volume (Nissl staining) (C6-Luc glioblastoma; 2 mg/kg PTX equivalent intranasal, PBS 98.4): 90.1 mm^3 | tumor progression (in vivo bioluminescence imaging) (C6-Luc glioblastoma; 2 mg/kg PTX intranasal, three daily inoculations from day 4, up to day 14): relatively identical to the saline-treated group | increase in in vivo bioluminescence signals (C6-Luc glioblastoma; day 14, 2 mg/kg intranasal): 1.0×10^8 fold | annexin V-positive cells (rat glioma cells; 1 μM): 30.1% | annexin V-positive cells (rat glioma cells; 10 μM): 33.1% | annexin V-positive cells (rat glioma cells; 50 μM): 34.2% | number of annexin V and 7-AAD-positive cells (rat glioma cells; various concentrations): concentration-dependently increased | nuclear morphology (Hoechst staining) (C6-glioma cells; compared with non-treated glioma cells): severe formation of DNA fragmentation or segmentation or condensed nuclei | number of apoptotic cells stained with TUNEL (C6-glioma cells; equivalent amounts of PTX): concentration-dependently increased | number of TUNEL-positive cells (C6-glioma cells; fifth tested micromolar concentration (50 μM)): ~236.1 | number of TUNEL-positive cells (C6-glioma cells; first tested micromolar concentration (0.01 μM)): approximately 77 | number of TUNEL-positive cells (C6-glioma cells; fourth tested micromolar concentration (10 μM)): ~198.6 | number of TUNEL-positive cells (C6-glioma cells; second tested micromolar concentration (0.1 μM)): ~97.5 | number of TUNEL-positive cells (C6-glioma cells; third tested micromolar concentration (1 μM)): ~136.6 | cells at the G1 phase (C6 glioblastoma cells): 9% | cells at the G2-M phase (C6 glioblastoma cells; non-treated 29%): 83%
